# Source: patent US10001469B2, “Use of GPR83 to identify pruritus-related substances” (University of Miyazaki, priority 2010, dated 2018)
# “Also recorded” adds a separate entry of the source. Non-standard residues stand in square brackets, D forms with d. No end group written: not given here.
# Columns and labels:
# [1] = system: intrathecally catheterized rats; assay: Scratching behavior after intrathecal administration of the peptide alone; type: in vivo, rat; conditions: 10^−3 M (10 nmol/10 μl) intrathecal
# Description: 10^−3 M (10 nmol/10 μl) HK-1 and SP, the N-terminal regions (nHK-1 and nSP), and the C-terminal regions (cHK-1 and cSP) were administered to intrathecally catheterized rats via catheters. Ethological changes beginning immediately after administration were evaluated using the number of scratching events during a 5-minute period after each peptide administration as an indicator. Here, the expression “10^−3 M (10 nmol/10 μl) . . . administered” refers to administration of 10 μl (full dose) of a solution containing 10 nmol of a peptide (e.g., nHK-1) (that is, a 10^−3 M solution). The same applies to the following similar expressions. […] In these graphs, the number of scratching events induced by administration of 10^−3 M (10 nmol/10 μl) SP or HK-1 alone is designated as a control, and is specifically designated as 100%.
# [2] = system: SP-induced scratching behavior; assay: SP-induced scratching behavior after intrathecal pre-administration of peptide or siRNA; type: in vivo, rat
# Description: In addition, the number of scratching events induced by SP administration at 5 minutes after saline administration was designated as a control, and was specifically designated as 100%.
# In addition, the number of scratching events induced by SP administration at 5 minutes after saline administration was designated as a control and was specifically designated as 100%.
# 10^−3 M (10 nmol/10 μl) N-terminal regions (nSP and nHK-1) and the following peptides subjected to substitution were administered to intrathecally catheterized rats via catheters.
# 5 minutes after administration, the number of scratching events induced by administration of 10^−3 M (10 nmol/10 μl) SP was evaluated. In addition, the number of scratching events induced by administration of 10^−3 M SP at 5 minutes after saline administration was designated as a control and was specifically designated as 100%.
# 10^−3 M (10 nmol/10 μl) DTrp^2-nSP and DTrp^2-nHK-1 were administered to intrathecally catheterized rats via catheters, and then the number of scratching events induced by administration of 10^−3 M (10 nmol/10 μl) SP was evaluated. […] In addition, the number of scratching events induced by SP administration at 5 minutes after saline administration was designated as a control and was specifically designated as 100%.
# siRNA was prepared using an HVJ Envelop Vector Kit (ISHIHARA SANGYO KAISHA, LTD) according to the protocols of the kit. 10 μl of an siRNA solution was administered to intrathecally catheterized rats via catheters. With administration of only HVJ-E and administration of mismatch siRNA as controls, time-course changes in scratching events resulting from SP or HK-1 were evaluated.
# Next, NK1R siRNA was intrathecally administered and then SP was intrathecally administered on days 4, 7, 10, and 14. […] The number of SP-induced scratching events was gradually recovered after siRNA administration.
# [3] = system: formalin-induced inflammatory pain; assay: Formalin-induced pain behavior (flinching) after intraplantar formalin; type: in vivo, rat; conditions: 10^−2 M (100 nmol/10 μl) peptide intrathecal 5 minutes before 2% formalin; for pain behavior (flinching events) during phase I: 0-10 minutes; for pain behavior (flinching events) during phase II: 10-60 minutes
# Description: 10^−2 M (100 nmol/10 μl) nSP and nHK-1, or saline (10 μl) was administered to intrathecally catheterized rats via catheters, and then 5 minutes later, 50 μl of 2% formalin was administered subeutaneously to the hind paws of rats. The number of flinching events (pain behavior) was determined for a 60-minute period after formalin administration, so that the degree of pain was evaluated. During the 10-minute period after formalin administration (referred to as phase I), pain behavior was determined once every 2 minutes (1 minute per determination). During the period from 10 minutes to 60 minutes after formalin administration (referred to as phase 11), pain behavior was determined once every 5 minutes (1 minute per determination), so that the degree of pain was evaluated. During phase I, behavior (phasic pain) resulting from chemical stimulation accompanying formalin administration was observed. During phase II, […] following the phasic pain was observed.
# The horizontal axis indicates time (minutes) after formalin administration and the vertical axis indicates the determined number of pain behavior events per minute.
# 4.5 mM (45 pmol/10 μl) GPR83 siRNA, 4.5 mM (45 pmol/10 μl) NK1R siRNA as target groups, 4.5 mM (45 pmol/10 μl) mismatch siRNA (MM siRNA: negative control), and 10 μl of HVJ-E (reagent for introduction of siRNA) were administered to intrathecally catheterized rats via catheters. On day 4 after administration, 50 μl of 2% formalin was administered subcutaneously to the hind paws of rats. The number of flinching events (pain behavior) was determined for a 60-minute period after formalin administration, so that the degree of pain was evaluated. During the 10-minute period after formalin administration (referred to as phase I), pain behavior was determined once every 2 minutes (1 minute per determination). During the period from 10 minutes to 60 minutes after formalin administration (referred to as phase II), pain behavior was determined once every 5 minutes (1 minute per determination), so that the degree of pain was evaluated. During phase I, behavior (phasic pain) resulting from chemical stimulation accompanying formalin administration was observed. During phase II, tonic pain following the phasic pain was observed.
# [4] = system: histamine-induced itching; assay: Histamine-induced itching behavior; type: in vivo, rat; conditions: for itching behavior resulting from histamine administration (scratching events, 20 minutes): 10^−2 M (100 nmol/10 μl) peptide intrathecal immediately before s.c. histamine, vs saline
# Description: (§1) Immediately after intrathecal administration of 10^−2 M (100 nmol/10 μl) DTrp^2-nSP, DTrp^2-nHK-1, or saline (10 μl) to intrathecally catheterized rats via catheters, an itching inducer (10^−3 M histamine (0.25 mg/50 μl) or 1.13×10^−4 M 5-HT (0.25 mg/50 μl)) was subcutaneously administered to the nape of the neck, and then itching behavior was determined for 20 minutes, thereby evaluating the degree of itching.
# (§2) FIG. 8 and FIG. 9 show itching behavior resulting from administration of histamine and 5-HT. The vertical axis indicates the determined number of scratching events for a 20-minute period after histamine and 5-HT administration. The horizontal axis indicates DTrp^2-nSP, DTrp^2-nHK-1, and saline administered.
# (§3) 4.5 mM (45 pmol/10 μl) GPR83 siRNA, 4.5 mM (45 pmol/10 μl) NK1R siRNA as target groups, and 10 μl of HVJ-E (reagent for introduction of siRNA) were administered to intrathecally catheterized rats via catheters. On day 4 after administration, itching inducers (10^−3 M histamine (0.25 mg/50 μl) and 1.13×10^−4 M 5-HT (0.25 mg/50 μl)) were each subcutaneously administered to the nape of the neck, itching behavior was determined for a 20-minute period after administration, and thus the degree of itching was evaluated.
# (§4) FIG. 15 and FIG. 16 show the results of observing itching behavior resulting from histamine administration and 5-HT administration. The vertical axis indicates the number of scratching events during a 20-minute period after administration of histamine and 5-HT, and the horizontal axis indicates HVJ-E (reagent for introduction of siRNA), GPR83 siRNA, and NK1R siRNA administered.
# 5-HT-induced itching = assay: Serotonin (5-HT)-induced itching behavior; type: in vivo, rat; conditions: for itching behavior resulting from 5-HT administration (scratching events, 20 minutes): 10^−2 M (100 nmol/10 μl) peptide intrathecal immediately before s.c. 5-HT, vs saline
# Description: as §1, §2, §3, §4
# [5] = system: SP-induced scratching behavior; assay: SP-induced scratching behavior after intrathecal pre-administration of peptide or siRNA; type: in vivo, rat; conditions: 5 minutes before SP
# pain-related behavior = conditions: cited from earlier work; for induction of pain-related behavior (e.g., scratching behavior): administered to a rat or a mouse, Non-patent Document 1; for suppression of pain-related behavior resulting from SP: Non-patent Documents 1, 2 and 3
# [6] = system: intrathecally catheterized rats; conditions: depending on the concentrations of peptides administered, Non-patent Document 7; cited from earlier work
# thermal hyperalgesia = conditions: intrathecal administration; Non-patent Documents 7, 9, 10, 11; cited from earlier work
# [7] = 10^−3 M (10 nmol/10 μl) peptide intrathecal, administration interval 5 minutes before 10^−3 M SP
# [8] = 10^−3 M peptide intrathecal, administration interval 10 minutes
# [9] = 10^−3 M peptide intrathecal, administration interval 15 minutes
# [10] = assumed in view of Examples 1 to 5, not tested
# [11] = 10^−3 M peptide intrathecal, administration interval 20 minutes
# [12] = 10^−3 M peptide intrathecal, administration interval 30 minutes
substance,measurement,setting,value
Arg-Ser-Arg-Thr-Arg-NH2 (RSRTR-NH2) [nHK-1],scratching behavior on administration of the peptide alone (number of scratching events during a 5-minute period),[1],no scratching behavior
same,suppression of the number of SP-induced scratching events,[2]; [7],significantly suppress the number of scratching events; also recorded: an effect of significantly suppressing scratching behavior; also recorded: significant effects of suppressing SP-induced scratching behavior
same,suppression of the number of SP-induced scratching events,[2]; [8],suppression effect was exhibited to a significant degree
same,suppression of the number of SP-induced scratching events,[2]; [9],suppression effect disappeared
same,pain behavior (flinching events) during phase I,[3],pain behavior decreased significantly
same,pain behavior (flinching events) during phase II,[3],pain behavior decreased significantly
same,suppression of histamine-induced itching (assumed),[4]; [10],suppresses
same,suppression of 5-HT-induced itching (assumed),5-HT-induced itching; [10],suppresses
Arg-Pro-Lys-Pro-Gln-NH2 (RPKPQ-NH2) [nSP],scratching behavior on administration of the peptide alone (number of scratching events during a 5-minute period),[1],no scratching behavior
same,suppression of the number of SP-induced scratching events,[2]; [7],significantly suppress the number of scratching events; also recorded: an effect of suppressing the number of scratching events was exhibited significantly; also recorded: significant effects of suppressing SP-induced scratching behavior
same,suppression of the number of SP-induced scratching events,[2]; [8],suppression effect was exhibited to a significant degree
same,suppression of the number of SP-induced scratching events,[2]; [9],suppression effect disappeared
same,pain behavior (flinching events) during phase I,[3],pain behavior decreased significantly
same,pain behavior (flinching events) during phase II,[3],pain behavior decreased significantly
same,suppression of scratching behavior resulting from SP administration,[5]; 10^−4 M (1 nmol/10 μl) peptide intrathecal,suppressed scratching behavior resulting from SP administration
same,suppression of scratching behavior resulting from SP administration,[5]; 10^−5 M (100 pmol/10 μl) peptide intrathecal,suppressed scratching behavior resulting from SP administration
Phe-Phe-Gly-Leu-Met-NH2 (FFGLM-NH2) [SP(7-11)],"induction of pain-related behavior (e.g., scratching behavior)",pain-related behavior,pain-related behavior is induced
Arg-Pro-Lys-Pro-Gln-Gln-Phe-NH2 (RPKPQQF-NH2) [SP(1-7)],suppression of pain-related behavior resulting from SP,pain-related behavior,can be suppressed; also recorded: suppress pain-related behavior resulting from SP
R[dW]KPQ-NH2 [DTrp^2-nSP],suppression of the number of SP-induced scratching events,[2]; [7],significantly suppress the number of scratching events
same,suppression of the number of SP-induced scratching events,[2]; [11],suppression effect was significantly exhibited; also recorded: maintained significant suppression effects
same,suppression of the number of SP-induced scratching events,[2]; [12],suppression effect disappeared
same,"itching behavior resulting from histamine administration (scratching events, 20 minutes)",[4],no difference was found in itching behavior
same,"itching behavior resulting from 5-HT administration (scratching events, 20 minutes)",5-HT-induced itching,no difference was found in the degree of itching behavior
Arg-Pro-Lys-Pro-Gln-Gln-Phe-Phe-Gly-Leu-Met-NH2 (RPKPQQFFGLM-NH2; listed as Homo sapiens) [SP],induction of scratching behavior by intrathecal administration,[6],induces scratching behavior
same,induction of thermal hyperalgesia,thermal hyperalgesia,induces thermal hyperalgesia
same,"induction of pain-related behavior (e.g., scratching behavior)",pain-related behavior,induces pain-related behavior
Gln-Phe-Tyr-Gly-Leu-Met-NH2 (QFYGLM-NH2) [cHK-1],scratching behavior on administration of the peptide alone (number of scratching events during a 5-minute period),[1],resulted in scratching behavior
Arg-Pro-Lys-Pro-Gln-Gln-Phe-Phe-NH2 (RPKPQQFF-NH2) [SP(1-8)],suppression of pain-related behavior resulting from SP,pain-related behavior,suppress pain-related behavior resulting from SP
R[dW]RTR-NH2 [DTrp^2-nHK-1],suppression of the number of SP-induced scratching events,[2]; [7],significantly suppress the number of scratching events
same,suppression of the number of SP-induced scratching events,[2]; [11],suppression effect was significantly exhibited; also recorded: maintained significant suppression effects
same,suppression of the number of SP-induced scratching events,[2]; [12],suppression effect disappeared
same,"itching behavior resulting from histamine administration (scratching events, 20 minutes)",[4],significantly lowered itching events
same,"itching behavior resulting from 5-HT administration (scratching events, 20 minutes)",5-HT-induced itching,significantly lowered the degree of itching behavior
Gln-Phe-Phe-Gly-Leu-Met-NH2 (QFFGLM-NH2) [cSP],scratching behavior on administration of the peptide alone (number of scratching events during a 5-minute period),[1],resulted in scratching behavior
